In patent US4361578A, “D-Homosteroids” (priority 1980, dated 1982):

Tested on: 5α-reductase
Test: Inhibition of 5α-reductase in vivo (castrated male rats, organ weights and LH/FSH after 10 daily doses)
Set-up: species or system albino rats
Protocol: The in vivo testing was carried out as follows:
Adult male albino rats weighing 200 g were castrated. Two hours later they received the first of 10 daily dosages of the test substance suspended in 0.5% carboxymethylcellulose, 0.4% Tween 80 and 0.9% benzyl alcohol in physiological sodium chloride solution. Three hours after the last medication on the tenth day of treatment, the animals were decapitated, the blood from the body was collected, and the seminal vesicles, the ventral prostate and the Levator ani muscle were removed and weighed. The results are given as ng of NIAMDD-RP-1/ml.
VP: Ventral prostrate, SV: Seminal vesicle, MLA: Levator ani muscle
LH: Luteinizing hormone, FSH: Follicle stimulating hormone

[1] = T sc 0.5 mg/kg alone, experiment with F
[2] = T sc 0.5 mg/kg alone, experiment with L po
[3] = Testosterone sc 0.5 mg/kg alone, experiment with D
[4] = TP 0.5 mg/kg alone, experiment with A
[5] = TP sc 0.5 mg/kg alone, experiment with L sc
[6] = A sc 15 mg/kg + TP sc 0.5 mg/kg
[7] = L sc 15 mg/kg + TP sc 0.5 mg/kg

C[C@]12CC[C@H]3[C@@H](CCC4=CC(=O)CC[C@@]43C)[C@@H]1CC[C@@H]2O [T, Testosterone]
LH (luteinizing hormone) [1]: 96 ± 37 ng/mL
MLA (Levator ani muscle weight) [1]: 126 ± 7 mg
SV (seminal vesicle weight) [1]: 85 ± 7 mg
VP (ventral prostate weight) [1]: 128 ± 12 mg
MLA (Levator ani muscle weight) [2]: 109 ± 8 mg
SV (seminal vesicle weight) [2]: 92 ± 13 mg
VP (ventral prostate weight) [2]: 96 ± 10 mg
FSH (follicle stimulating hormone) [3]: 1206 ± 114 ng/mL
LH (luteinizing hormone) [3]: 104 ± 25 ng/mL
MLA (Levator ani muscle weight) [3]: 108 ± 5 mg
SV (seminal vesicle weight) [3]: 65 ± 5 mg
VP (ventral prostate weight) [3]: 112 ± 10 mg

CCC(=O)O[C@H]1CC[C@H]2[C@@H]3CCC4=CC(=O)CC[C@]4(C)[C@H]3CC[C@]12C [TP, Testosterone propionate]
FSH (follicle stimulating hormone) [4]: 783 ± 167 ng/mL
LH (luteinizing hormone) [4]: 101 ± 36 ng/mL
MLA (Levator ani muscle weight) [4]: 137 ± 7 mg
SV (seminal vesicle weight) [4]: 215 ± 13 mg
VP (ventral prostate weight) [4]: 160 ± 18 mg
FSH (follicle stimulating hormone) [5]: 915 ± 37 ng/mL
LH (luteinizing hormone) [5]: 121 ± 12 ng/mL
MLA (Levator ani muscle weight) [5]: 75 ± 4 mg
SV (seminal vesicle weight) [5]: 69 ± 3 mg
VP (ventral prostate weight) [5]: 108 ± 6 mg

C[C@]12CC[C@H]3[C@@H](CCC4=CC(=O)CC[C@@]43C)[C@@H]1CCC[C@@H]2C(=O)O [Test substance A, 3-oxo-D-homo-androst-4-ene-17aα-carboxylic acid]
FSH (follicle stimulating hormone) [6]: 1268 ± 125 ng/mL
LH (luteinizing hormone) [6]: 283 ± 41 ng/mL
MLA (Levator ani muscle weight) [6]: 118 ± 8 mg
SV (seminal vesicle weight) [6]: 157 ± 15 mg
VP (ventral prostate weight) [6]: 116 ± 11 mg

COC(=O)[C@H]1CCC[C@H]2[C@@H]3CCC4=C(Cl)C(=O)CC[C@]4(C)[C@H]3CC[C@]12C [Test substance D, methyl 4-chloro-3-oxo-D-homo-androst-4-ene-17aβ-carboxylate]
FSH (follicle stimulating hormone) (D sc 10 mg/kg + T sc 0.5 mg/kg): 1325 ± 93 ng/mL
LH (luteinizing hormone) (D sc 10 mg/kg + T sc 0.5 mg/kg): 244 ± 45 ng/mL
MLA (Levator ani muscle weight) (D sc 10 mg/kg + T sc 0.5 mg/kg): 83 ± 6 mg
SV (seminal vesicle weight) (D sc 10 mg/kg + T sc 0.5 mg/kg): 51 ± 9 mg
VP (ventral prostate weight) (D sc 10 mg/kg + T sc 0.5 mg/kg): 95 ± 10 mg

C[C@]12CCC(=O)C=C1CC[C@@H]1[C@@H]2CC[C@@]2(C)[C@H]1CC=C[C@@]21CCCO1 [Test substance F, 4,5-dihydrospiro[furan-2(3H),17'a(β1)-D-homo-androsta-4,16-dien]-3'-one]
LH (luteinizing hormone) (F sc 10 mg/kg + T sc 0.5 mg/kg): 88 ± 15 ng/mL
MLA (Levator ani muscle weight) (F sc 10 mg/kg + T sc 0.5 mg/kg): 105 ± 6 mg
SV (seminal vesicle weight) (F sc 10 mg/kg + T sc 0.5 mg/kg): 66 ± 4 mg
VP (ventral prostate weight) (F sc 10 mg/kg + T sc 0.5 mg/kg): 93 ± 10 mg

COC(=O)C1=CCC[C@H]2[C@@H]3CCC4=CC(=O)CC[C@]4(C)[C@H]3CC[C@]12C [Test substance L, methyl 3-oxo-D-homo-androsta-4,17-diene-17a-carboxylate]
MLA (Levator ani muscle weight) (L po 30 mg/kg + T sc 0.5 mg/kg): 88 ± 17 mg
SV (seminal vesicle weight) (L po 30 mg/kg + T sc 0.5 mg/kg): 68 ± 13 mg
VP (ventral prostate weight) (L po 30 mg/kg + T sc 0.5 mg/kg): 81 ± 16 mg
FSH (follicle stimulating hormone) [7]: 1099 ± 94 ng/mL
LH (luteinizing hormone) [7]: 163 ± 30 ng/mL
MLA (Levator ani muscle weight) [7]: 67 ± 6 mg
SV (seminal vesicle weight) [7]: 52 ± 1 mg
VP (ventral prostate weight) [7]: 80 ± 6 mg
